Results on six compounds are retold here after paper PMC7872956, “Fucosidases from the human gut symbiont Ruminococcus gnavus” (Cellular and Molecular Life Sciences: CMLS, 2020).

Assay [1] has as its target T1, GH29 fucosidase E1_10125 (Mediterraneibacter gnavus, UniProt A0A6N3BKT0, D236A).
T1 construct: gene hypBA2
As to the kind of experiment: ITC; also STD NMR. The class given is binding.

The target in assay [2] is T2, GH29 fucosidase E1_10125 (Mediterraneibacter gnavus, UniProt A0A6N3BKT0, D236A).
T2 construct: gene hypBA2
T2 sequence (A0A6N3BKT0 35-583 D236A): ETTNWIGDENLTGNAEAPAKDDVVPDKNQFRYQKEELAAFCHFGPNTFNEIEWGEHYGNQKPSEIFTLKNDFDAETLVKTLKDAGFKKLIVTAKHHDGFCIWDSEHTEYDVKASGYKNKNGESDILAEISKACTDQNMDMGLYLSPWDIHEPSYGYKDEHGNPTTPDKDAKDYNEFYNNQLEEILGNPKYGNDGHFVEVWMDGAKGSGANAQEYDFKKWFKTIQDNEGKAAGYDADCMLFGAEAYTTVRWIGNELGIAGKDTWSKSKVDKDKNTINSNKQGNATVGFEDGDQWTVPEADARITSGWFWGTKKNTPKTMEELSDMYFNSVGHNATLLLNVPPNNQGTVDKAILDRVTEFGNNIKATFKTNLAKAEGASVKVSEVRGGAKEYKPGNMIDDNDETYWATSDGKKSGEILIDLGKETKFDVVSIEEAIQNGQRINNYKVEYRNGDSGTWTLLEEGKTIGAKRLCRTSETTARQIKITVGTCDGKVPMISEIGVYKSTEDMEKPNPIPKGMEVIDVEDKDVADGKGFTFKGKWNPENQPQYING
Description: STD NMR binding epitope mapping.

Assay [3] deals with T2, GH29 fucosidase E1_10125. As to the kind of experiment: X-ray crystal structure ([…] Å) and ITC. The class given is binding.

In turn, `CC(=O)N[C@H]1C(O)O[C@H](CO)[C@@H](O[C@@H]2O[C@H](CO)[C@H](O)[C@H](O)[C@H]2O)[C@@H]1O[C@@H]1O[C@@H](C)[C@@H](O)[C@@H](O)[C@@H]1O` (stereo partly drawn) [LeX, Lewis X] showed a Kd on GH29 fucosidase E1_10125 [1] of 51.4 ± 1.93 µM. Take `C[C@@H]1O[C@@H](O[C@H]2[C@H](O[C@@H]3O[C@H](CO)[C@H](O)[C@H](O)[C@H]3O)[C@@H](CO)OC(O)[C@@H]2O)[C@@H](O)[C@H](O)[C@@H]1O` (stereo partly drawn) [3FL]: the “STD NMR binding epitope mapping” value at GH29 fucosidase E1_10125 [2] is “The enzyme intimately recognized the three sugar residues constituting 3FL and LeA”. Turning to `C[C@@H]1OC(O)[C@@H](O)[C@H](O)[C@@H]1O` (stereo partly drawn) [Fuc, L-fucose], the Kd on GH29 fucosidase E1_10125 [3] was 21.7 µM.

In turn, `CC(=O)N[C@H]1[C@H]([C@H](O)[C@H](O)CO)O[C@@](O[C@H]2[C@@H](O)[C@@H](CO)O[C@@H](O[C@H]3[C@H](O[C@@H]4O[C@@H](C)[C@@H](O)[C@@H](O)[C@@H]4O)[C@@H](NC(C)=O)C(O)O[C@@H]3CO)[C@@H]2O)(C(=O)O)C[C@@H]1O` (stereo partly drawn) [sLeX, 3′-Sialyl Lewis X] had a Kd on GH29 fucosidase E1_10125 [1] of 3.59 ± 0.48 µM. Same read-out and setting: the result for `CC(=O)N[C@H]1C(O)O[C@H](CO)[C@@H](O[C@@H]2O[C@H](CO)[C@H](O)[C@H](O[C@H]3O[C@H](CO)[C@H](O)[C@H](O)[C@H]3O)[C@H]2O)[C@@H]1O[C@@H]1O[C@@H](C)[C@@H](O)[C@@H](O)[C@@H]1O` (stereo partly drawn) [αGal-LeX, α1–3Gal-Lewis X] reads 47.1 ± 5.6 µM. Turning to `CC(=O)N[C@H]1C(O)O[C@H](CO)[C@@H](O[C@@H]2O[C@@H](C)[C@@H](O)[C@@H](O)[C@@H]2O)[C@@H]1O[C@@H]1O[C@H](CO)[C@H](O)[C@H](O)[C@H]1O` (stereo partly drawn) [LeA, Lewis A], on GH29 fucosidase E1_10125 [2], the “STD NMR binding epitope mapping” value was “The enzyme intimately recognized the three sugar residues constituting 3FL and LeA”.
